Measured values: patent US9708314B2, “Heterocyclic amide compound” (NISSAN CHEMICAL INDUSTRIES, LTD., priority 2013, dated 2017)

Legend:
Format in all cases: in vivo
Monochoria vaginalis = test: Test Example 2: herbicidal activity, application during weed generation in submerged conditions; conditions: Eighteenth Table; application herbicide amount 320 g/ha
Summary of the method: (§1)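 Seeds were sown together in alluvial soil kept under 4 cm of water and grown at 25 °C to 30 °C. Once plants reached the one- to two-leaf stage, the diluted emulsion was applied to the water surface at a predetermined g/ha amount, and effects were rated 0–5 after three weeks.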

Scirpus juncoides = test: as above; conditions: Eighteenth Table; application herbicide amount 320 g/ha
Summary of the method: as §1

[1] = tested on: directly sowed Oryza sativa; test: Test Example 3: effect on crop by application to foliage (Wagner pot, water depth 0.1-0.5 cm); conditions: Nineteenth Table; application to foliage; application herbicide amount 320 g/ha
Summary of the method: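 Alluvial soil in 1/10000 are Wagner pots, sown and grown 14 days in a 25–30 °C greenhouse. An emulsifiable concentrate diluted in water to the set dose (g/ha) was sprayed on stems and leaves. Effect scored three weeks later on a 0–5 scale: 5 = ≥90% herbicidal ratio, 0 = ≤5%.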

[2] = tested on: Beta vulgaris ssp. vulgaris; test: Test Example 4: effect on crop by application to foliage (diluvial soil, plastic box); conditions: Application herbicide amount 320 g/ha; foliage application
Summary of the method: (§2)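 Greenhouse plants (25° C. to 30° C., 14 d, diluvial soil) receive a foliar spray of water-diluted emulsifiable formulation at defined g/ha. Grading after 3 weeks uses a six-step herbicidal-ratio scale, with 4 covering 70% to <90% and 1 covering 5% to <20%.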

Brassica campestris L. = test: as above; conditions: Application herbicide amount 320 g/ha; foliage application
Summary of the method: as §2

Glycine max = test: as above; conditions: Application herbicide amount 320 g/ha; foliage application
Summary of the method: as §2

Triticum aestivum = test: as above; conditions: Application herbicide amount 320 g/ha; foliage application
Summary of the method: as §2

Zea mays = test: as above; conditions: Application herbicide amount 320 g/ha; foliage application
Summary of the method: as §2

[3] = tested on: directly sowed Oryza sativa; test: as above; conditions: Application herbicide amount 320 g/ha; foliage application
Summary of the method: as §2

| Compound | C (Monochoria vaginalis) herbicidal ratio grade (Monochoria vaginalis) | B (Scirpus juncoides) herbicidal ratio grade (Scirpus juncoides) | b (effect on crop grade) [1] | f (Beta vulgaris ssp. vulgaris) effect on crop grade [2] | g (Brassica campestris L.) effect on crop grade (Brassica campestris L.) | d (Glycine max) effect on crop grade (Glycine max) | e (Triticum aestivum) effect on crop grade (Triticum aestivum) | c (Zea mays) effect on crop grade (Zea mays) | b (directly sowed Oryza sativa) effect on crop grade [3] |
| --- | --- | --- | --- | --- | --- | --- | --- | --- | --- |
| Cc1nnc(NC(=O)c2ccc(C(F)(F)F)n3c(N4CCCC4)nnc23)o1 [1-136] | 2 (Herbicidal ratio of 20% or more and less than 40%) | 2 (Herbicidal ratio of 20% or more and less than 40%) | 2 (Herbicidal ratio of 20% or more and less than 40%) | 4 (Herbicidal ratio of 70% or more and less than 90%) | 0 (Herbicidal ratio of 5% or less (almost no effect)) | 3 (Herbicidal ratio of 40% or more and less than 70%) | 0 (Herbicidal ratio of 5% or less (almost no effect)) | 1 (Herbicidal ratio of 5% or more and less than 20%) |  |
| CC(C)N(C)c1nnc2c(C(=O)Nc3nnco3)ccc(C(F)(F)F)n12 [1-122] | 3 (Herbicidal ratio of 40% or more and less than 70%) | 3 (Herbicidal ratio of 40% or more and less than 70%) | 3 (Herbicidal ratio of 40% or more and less than 70%) | 5 (Herbicidal ratio of 90% or more (almost completely withered)) | 5 (Herbicidal ratio of 90% or more (almost completely withered)) | 5 (Herbicidal ratio of 90% or more (almost completely withered)) | 2 (Herbicidal ratio of 20% or more and less than 40%) | 2 (Herbicidal ratio of 20% or more and less than 40%) |  |
| Cc1nnc(NC(=O)c2ccc(C(F)(F)F)n3c(SCC(F)(F)F)nnc23)o1 [1-124] | 1 (Herbicidal ratio of 5% or more and less than 20%) | 3 (Herbicidal ratio of 40% or more and less than 70%) | 0 (Herbicidal ratio of 5% or less (almost no effect)) | 3 (Herbicidal ratio of 40% or more and less than 70%) | 0 (Herbicidal ratio of 5% or less (almost no effect)) | 3 (Herbicidal ratio of 40% or more and less than 70%) | 0 (Herbicidal ratio of 5% or less (almost no effect)) | 1 (Herbicidal ratio of 5% or more and less than 20%) |  |
| CCN(CC)c1nnc2c(C(=O)Nc3nnco3)ccc(C(F)(F)F)n12 [1-138] | 3 (Herbicidal ratio of 40% or more and less than 70%) | 3 (Herbicidal ratio of 40% or more and less than 70%) | 3 (Herbicidal ratio of 40% or more and less than 70%) | 5 (Herbicidal ratio of 90% or more (almost completely withered)) | 4 (Herbicidal ratio of 70% or more and less than 90%) | 3 (Herbicidal ratio of 40% or more and less than 70%) | 1 (Herbicidal ratio of 5% or more and less than 20%) | 0 (Herbicidal ratio of 5% or less (almost no effect)) |  |
| COCCN(C)c1nnc2c(C(=O)Nc3nnc(C)o3)ccc(C(F)(F)F)n12 [1-129] | 3 (Herbicidal ratio of 40% or more and less than 70%) | 4 (Herbicidal ratio of 70% or more and less than 90%) | 3 (Herbicidal ratio of 40% or more and less than 70%) | 5 (Herbicidal ratio of 90% or more (almost completely withered)) | 3 (Herbicidal ratio of 40% or more and less than 70%) | 4 (Herbicidal ratio of 70% or more and less than 90%) | 1 (Herbicidal ratio of 5% or more and less than 20%) | 2 (Herbicidal ratio of 20% or more and less than 40%) |  |
| CC(=O)CSc1nnc2c(C(=O)Nc3nnc(C)o3)ccc(C(F)(F)F)n12 [1-125] | 1 (Herbicidal ratio of 5% or more and less than 20%) | 2 (Herbicidal ratio of 20% or more and less than 40%) | 1 (Herbicidal ratio of 5% or more and less than 20%) | 5 (Herbicidal ratio of 90% or more (almost completely withered)) | 3 (Herbicidal ratio of 40% or more and less than 70%) | 3 (Herbicidal ratio of 40% or more and less than 70%) | 1 (Herbicidal ratio of 5% or more and less than 20%) | 2 (Herbicidal ratio of 20% or more and less than 40%) |  |
| COc1ccc(Cc2nnc3c(C(=O)Nc4nnco4)ccc(C(F)(F)F)n23)cc1 [1-151] | 2 (Herbicidal ratio of 20% or more and less than 40%) | 4 (Herbicidal ratio of 70% or more and less than 90%) |  | 5 (Herbicidal ratio of 90% or more (almost completely withered)) | 5 (Herbicidal ratio of 90% or more (almost completely withered)) | 4 (Herbicidal ratio of 70% or more and less than 90%) | 3 (Herbicidal ratio of 40% or more and less than 70%) | 0 (Herbicidal ratio of 5% or less (almost no effect)) | 0 (Herbicidal ratio of 5% or less (almost no effect)) |
| CSCc1nnc2c(C(=O)Nc3nnco3)ccc(C(F)(F)F)n12 [1-146] | 3 (Herbicidal ratio of 40% or more and less than 70%) | 3 (Herbicidal ratio of 40% or more and less than 70%) |  | 5 (Herbicidal ratio of 90% or more (almost completely withered)) | 5 (Herbicidal ratio of 90% or more (almost completely withered)) | 5 (Herbicidal ratio of 90% or more (almost completely withered)) | 3 (Herbicidal ratio of 40% or more and less than 70%) | 0 (Herbicidal ratio of 5% or less (almost no effect)) | 5 (Herbicidal ratio of 90% or more (almost completely withered)) |
| O=C(Nc1nnco1)c1ccc(C(F)(F)F)n2c(-c3ccc(Cl)nc3)nnc12 [1-150] | 4 (Herbicidal ratio of 70% or more and less than 90%) | 5 (Herbicidal ratio of 90% or more (almost completely withered)) |  | 5 (Herbicidal ratio of 90% or more (almost completely withered)) | 5 (Herbicidal ratio of 90% or more (almost completely withered)) | 4 (Herbicidal ratio of 70% or more and less than 90%) | 3 (Herbicidal ratio of 40% or more and less than 70%) | 0 (Herbicidal ratio of 5% or less (almost no effect)) | 3 (Herbicidal ratio of 40% or more and less than 70%) |
| C#CCN(C)c1nnc2c(C(=O)Nc3nnc(C)o3)ccc(C(F)(F)F)n12 [1-152] | 3 (Herbicidal ratio of 40% or more and less than 70%) | 3 (Herbicidal ratio of 40% or more and less than 70%) |  | 4 (Herbicidal ratio of 70% or more and less than 90%) | 1 (Herbicidal ratio of 5% or more and less than 20%) | 3 (Herbicidal ratio of 40% or more and less than 70%) | 0 (Herbicidal ratio of 5% or less (almost no effect)) | 0 (Herbicidal ratio of 5% or less (almost no effect)) | 0 (Herbicidal ratio of 5% or less (almost no effect)) |
